Test system: MV-4-11 cells
Assay: Gene expression microarray analysis (Affymetrix PrimeView) and GSEA
Assay type: cell-based, human
Design: RFU PODN (11730768_x_at) / Fold change /veh PODN (11730768_x_at) / RFU LINC00158 (11744669_a_at) / Fold change /veh LINC00158 (11744669_a_at) / RFU DUSP10 (11751237_a_at) / Fold change /veh DUSP10 (11751237_a_at) / RFU ID3 (11757404_x_at) / Fold change /veh ID3 (11757404_x_at) / RFU PLEKHG5 (11737974_s_at) / Fold change /veh PLEKHG5 (11737974_s_at) / RFU LRRC4B (11730491_at) / Fold change /veh LRRC4B (11730491_at) / RFU GIMAP4 (11747438_a_at) / Fold change /veh GIMAP4 (11747438_a_at) / RFU KRT8 (11758183_x_at) / Fold change /veh KRT8 (11758183_x_at) / RFU CNN1 (11734310_a_at) / Fold change /veh CNN1 (11734310_a_at) / RFU VPS37D (11726825_at) / Fold change /veh VPS37D (11726825_at) / RFU C10orf10 (11716522_x_at) / Fold change /veh C10orf10 (11716522_x_at) / RFU KIR2DL2 /// KIR2DL4 /// KIR2DL5A /// KIR2DL5B /// KIR2DS1 /// KIR2DS2 /// KIR2DS3 /// KIR2DS4 /// KIR3DL3 /// KIR3DL3 /// KIR3DS1 (11738374_at) / Fold change /veh KIR2DL2 /// KIR2DL4 /// KIR2DL5A /// KIR2DL5B /// KIR2DS1 /// KIR2DS2 /// KIR2DS3 /// KIR2DS4 /// KIR3DL3 /// KIR3DL3 /// KIR3DS1 (11738374_at) / RFU C1QL1 (11718748_at) / Fold change /veh C1QL1 (11718748_at) / RFU TMPRSS4 (11747572_a_at) / Fold change /veh TMPRSS4 (11747572_a_at) / RFU HAMP (11756126_x_at) / Fold change /veh HAMP (11756126_x_at) / RFU RNFT2 (11725882_a_at) / Fold change /veh RNFT2 (11725882_a_at) / RFU NR4A2 (11747474_a_at) / Fold change /veh NR4A2 (11747474_a_at) / RFU ABCC12 (11746883_a_at) / Fold change /veh ABCC12 (11746883_a_at) / RFU TMEM136 (11760407_x_at) / Fold change /veh TMEM136 (11760407_x_at) / RFU CLDN22 /// WWC2 (11732394_at) / Fold change /veh CLDN22 /// WWC2 (11732394_at) / RFU HLA-DPB1 (11760878_x_at) / Fold change /veh HLA-DPB1 (11760878_x_at) / RFU SPINT1 (11716480_a_at) / Fold change /veh SPINT1 (11716480_a_at) / RFU GAP43 (11754022_s_at) / Fold change /veh GAP43 (11754022_s_at) / RFU A4GNT (11735810_at) / Fold change /veh A4GNT (11735810_at) / RFU PRB3 (11715151_x_at) / Fold change /veh PRB3 (11715151_x_at) / RFU TUBB4B (11761932_at) / Fold change /veh TUBB4B (11761932_at) / RFU CAPN14 (11732068_a_at) / Fold change /veh CAPN14 (11732068_a_at) / RFU TMCC2 (11721928_a_at) / Fold change /veh TMCC2 (11721928_a_at) / RFU IRGQ (11745062_a_at) / Fold change /veh IRGQ (11745062_a_at) / RFU FAM174B (11720279_a_at) / Fold change /veh FAM174B (11720279_a_at) / RFU TMPRSS4 (11748680_a_at) / Fold change /veh TMPRSS4 (11748680_a_at) / RFU FAM212B (11763350_a_at) / Fold change /veh FAM212B (11763350_a_at) / RFU PLEKHG5 (11743358_a_at) / Fold change /veh PLEKHG5 (11743358_a_at) / RFU ZSCAN30 (11745921_a_at) / Fold change /veh ZSCAN30 (11745921_a_at) / RFU CMKLR1 (11741424_a_at) / Fold change /veh CMKLR1 (11741424_a_at) / RFU LOC101060620 /// MAPK8IP1 (11723275_at) / Fold change /veh LOC101060620 /// MAPK8IP1 (11723275_at) / RFU SPTSSB (11747773_x_at) / Fold change /veh SPTSSB (11747773_x_at) / RFU PRSS12 (11739890_at) / Fold change /veh PRSS12 (11739890_at) / RFU BIN1 (11741810_x_at) / Fold change /veh BIN1 (11741810_x_at) / RFU WNT11 (11732464_a_at) / Fold change /veh WNT11 (11732464_a_at) / RFU C10orf10 (11716521_a_at) / Fold change /veh C10orf10 (11716521_a_at) / RFU C5orf56 (11738089_at) / Fold change /veh C5orf56 (11738089_at) / RFU CYB561 (11721691_x_at) / Fold change /veh CYB561 (11721691_x_at) / RFU ANKRD19P (11752326_a_at) / Fold change /veh ANKRD19P (11752326_a_at) / RFU OR2T12 /// OR2T33 /// OR2T8 (11738714_s_at) / Fold change /veh OR2T12 /// OR2T33 /// OR2T8 (11738714_s_at) / RFU VCAN (11748164_a_at) / Fold change /veh VCAN (11748164_a_at) / RFU JSRP1 (11732532_at) / Fold change /veh JSRP1 (11732532_at) / RFU KRTAP10-11 (11738290_x_at) / Fold change /veh KRTAP10-11 (11738290_x_at) / RFU MYO3A (11730013_a_at) / Fold change /veh MYO3A (11730013_a_at) / RFU EBF3 (11725865_a_at) / Fold change /veh EBF3 (11725865_a_at) / RFU CAMK2N1 (11719241_x_at) / Fold change /veh CAMK2N1 (11719241_x_at) / RFU C5orf56 (11738088_a_at) / Fold change /veh C5orf56 (11738088_a_at) / RFU OLFML3 (11715873_a_at) / Fold change /veh OLFML3 (11715873_a_at) / RFU LOC100653217 /// NTM (11731650_a_at) / Fold change /veh LOC100653217 /// NTM (11731650_a_at) / RFU MAPK11 (11762145_a_at) / Fold change /veh MAPK11 (11762145_a_at) / RFU FIZ1 (11724087_x_at) / Fold change /veh FIZ1 (11724087_x_at) / RFU OASL (11726364_x_at) / Fold change /veh OASL (11726364_x_at) / RFU SOX15 (11748057_x_at) / Fold change /veh SOX15 (11748057_x_at) / RFU CD79A (11719716_a_at) / Fold change /veh CD79A (11719716_a_at) / RFU HIST1H1D (11736915_at) / Fold change /veh HIST1H1D (11736915_at) / RFU CASKIN2 (11723855_a_at) / Fold change /veh CASKIN2 (11723855_a_at) / RFU LOC730098 (11760151_x_at) / Fold change /veh LOC730098 (11760151_x_at) / RFU OR4N2 (11742367_at) / Fold change /veh OR4N2 (11742367_at) / RFU PRRT2 (11749266_a_at) / Fold change /veh PRRT2 (11749266_a_at) / RFU SNX32 (11753110_a_at) / Fold change /veh SNX32 (11753110_a_at) / RFU CDHR5 (11726645_a_at) / Fold change /veh CDHR5 (11726645_a_at) / RFU RCAN1 (11760418_a_at) / Fold change /veh RCAN1 (11760418_a_at) / RFU FAM167A (11723789_a_at) / Fold change /veh FAM167A (11723789_a_at) / RFU FAM26E (11764081_at) / Fold change /veh FAM26E (11764081_at) / RFU ISYNA1 (11749810_s_at) / Fold change /veh ISYNA1 (11749810_s_at) / RFU ACY1 (11761880_at) / Fold change /veh ACY1 (11761880_at) / RFU 11764098_at / Fold change /veh 11764098_at / RFU SAMD14 (11745864_x_at) / Fold change /veh SAMD14 (11745864_x_at) / RFU NPB (11741838_a_at) / Fold change /veh NPB (11741838_a_at) / RFU TMPRSS6 (11731388_a_at) / Fold change /veh TMPRSS6 (11731388_a_at) / RFU KRTAP10-2 (11738614_at) / Fold change /veh KRTAP10-2 (11738614_at) / RFU ARHGAP8 /// PRR5-ARHGAP8 (11727945_x_at) / Fold change /veh ARHGAP8 /// PRR5-ARHGAP8 (11727945_x_at) / RFU KRTAP5-7 /// NADSYN1 (11734609_at) / Fold change /veh KRTAP5-7 /// NADSYN1 (11734609_at) / RFU RASL12 (11751679_a_at) / Fold change /veh RASL12 (11751679_a_at) / RFU CDKN2B (11736163_a_at) / Fold change /veh CDKN2B (11736163_a_at) / RFU PRF1 (11729649_at) / Fold change /veh PRF1 (11729649_at) / RFU, ZNF638 /// ZNF638-IT1 / Fold change vs veh, ZNF638 /// ZNF638-IT1 / RFU, PANK3 / Fold change vs veh, PANK3 / RFU, SH3YL1 / Fold change vs veh, SH3YL1 / RFU, ZEB2 / Fold change vs veh, ZEB2 / RFU, NRIP1 / Fold change vs veh, NRIP1 / RFU, PTTG1IP / Fold change vs veh, PTTG1IP / RFU, CAPN2 / Fold change vs veh, CAPN2 / RFU, MED14 / Fold change vs veh, MED14 / RFU, SNORA58 / Fold change vs veh, SNORA58 / RFU, C1orf63 / Fold change vs veh, C1orf63 / RFU, LRRFIP1 / Fold change vs veh, LRRFIP1 / RFU, NDUFAF7 / Fold change vs veh, NDUFAF7 / RFU, SLC12A2 / Fold change vs veh, SLC12A2 / RFU, IBTK / Fold change vs veh, IBTK / RFU, ESF1 / Fold change vs veh, ESF1 / Fold change vs veh, TMEM50B / RFU, TAOK1 / Fold change vs veh, TAOK1 / RFU, ACBD3 / Fold change vs veh, ACBD3 / RFU, TMA16 / Fold change vs veh, TMA16 / RFU, RWDD3 / Fold change vs veh, RWDD3 / RFU, BCAT1 / Fold change vs veh, BCAT1 / RFU, EDEM3 / Fold change vs veh, EDEM3 / RFU, TMEM33 / Fold change vs veh, TMEM33 / RFU, WDR75 / Fold change vs veh, WDR75 / RFU, AHCTF1 / Fold change vs veh, AHCTF1 / RFU, TFRC / Fold change vs veh, TFRC / RFU, ZDHHC17 / Fold change vs veh, ZDHHC17 / RFU, NOM1 / Fold change vs veh, NOM1 / RFU, ARL8B / Fold change vs veh, ARL8B / RFU, ZBTB11 / Fold change vs veh, ZBTB11 / RFU, TAMM41 / Fold change vs veh, TAMM41 / RFU, KIAA1704 /// LOC100996395 / Fold change vs veh, KIAA1704 /// LOC100996395 / RFU, ING1 / Fold change vs veh, ING1 / RFU, TRMT61B / Fold change vs veh, TRMT61B / RFU, FUBP3 / Fold change vs veh, FUBP3 / RFU, TP53 / Fold change vs veh, TP53 / RFU, TNKS2 / Fold change vs veh, TNKS2 / RFU, ZFP14 / Fold change vs veh, ZFP14 / RFU, ACTR2 / Fold change vs veh, ACTR2 / RFU, PPP3R1 / Fold change vs veh, PPP3R1 / RFU, PIK3R1 / Fold change vs veh, PIK3R1 / RFU, HNRNPA1 / Fold change vs veh, HNRNPA1 / RFU, RNF170 / Fold change vs veh, RNF170 / RFU, ZNF28 / Fold change vs veh, ZNF28 / RFU, RNGTT / Fold change vs veh, RNGTT / RFU, OGT / Fold change vs veh, OGT / RFU, BRD1 / Fold change vs veh, BRD1 / RFU, MARS / Fold change vs veh, MARS / RFU, ZNF655 / Fold change vs veh, ZNF655 / RFU, FAHD1 / Fold change vs veh, FAHD1 / RFU, BDP1 / Fold change vs veh, BDP1 / RFU, LRRCC1 / Fold change vs veh, LRRCC1 / RFU, ARID1A / Fold change vs veh, ARID1A / RFU, ZNF146 / Fold change vs veh, ZNF146 / RFU, ZNF330 / Fold change vs veh, ZNF330 / RFU, GPN3 / Fold change vs veh, GPN3 / RFU, C9orf123 / Fold change vs veh, C9orf123 / RFU, N4BP2L2 / Fold change vs veh, N4BP2L2 / RFU, ARFIP1 / Fold change vs veh, ARFIP1 / RFU, FAM179B / Fold change vs veh, FAM179B / RFU, BCL10 / Fold change vs veh, BCL10 / RFU, UHRF1BP1L / Fold change vs veh, UHRF1BP1L / RFU, BET1 / Fold change vs veh, BET1 / RFU, CNOT2 / Fold change vs veh, CNOT2 / RFU, ZNF268 / Fold change vs veh, ZNF268 / Fold change vs veh, ZNF507 / RFU, DGCR2 / Fold change vs veh, DGCR2 / RFU, WDSUB1 / Fold change vs veh, WDSUB1 / Fold change vs veh, HSP90B1 /// MIR3652 / RFU, ADSS / Fold change vs veh, ADSS / RFU, GK / Fold change vs veh, GK / RFU, ZNF148 / Fold change vs veh, ZNF148 / RFU, TAF9 / Fold change vs veh, TAF9 / RFU, SLC1A5 / Fold change vs veh, SLC1A5 / RFU, SLMO2 / Fold change vs veh, SLMO2 / RFU, ABCC4 / Fold change vs veh, ABCC4 / RFU, LOC101060439 /// RAP1B / Fold change vs veh, LOC101060439 /// RAP1B / RFU, RFX7 / Fold change vs veh, RFX7 / RFU, GTPBP10 / Fold change vs veh, GTPBP10 / RFU, CNEP1R1 / Fold change vs veh, CNEP1R1 / RFU, BIVM-ERCC5 /// ERCC5 / Fold change vs veh, BIVM-ERCC5 /// ERCC5 / RFU, ILF3 / Fold change vs veh, ILF3 / RFU 11762660_at / Fold change /veh 11762660_at / RFU VCAN (11757783_s_at) / Fold change /veh VCAN (11757783_s_at) / RFU DDX43 (11728927_at) / Fold change /veh DDX43 (11728927_at) / RFU KRT8 (11758188_x_at) / Fold change /veh KRT8 (11758188_x_at) / RFU NKD1 (11759106_at) / Fold change /veh NKD1 (11759106_at) / RFU SRD5A1 (11742802_a_at) / Fold change /veh SRD5A1 (11742802_a_at) / RFU TPSAB1 /// TPSB2 (11721975_s_at) / Fold change /veh TPSAB1 /// TPSB2 (11721975_s_at) / RFU GSTM3 (11746129_a_at) / Fold change /veh GSTM3 (11746129_a_at) / RFU IL23R (11737362_x_at) / Fold change /veh IL23R (11737362_x_at) / RFU TMEM51 (11727254_a_at) / Fold change /veh TMEM51 (11727254_a_at) / RFU PIWIL2 (11732686_x_at) / Fold change /veh PIWIL2 (11732686_x_at) / RFU ORM1 (11744905_x_at) / Fold change /veh ORM1 (11744905_x_at) / RFU CCDC152 (11743942_at) / Fold change /veh CCDC152 (11743942_at) / RFU ECM1 (11717891_a_at) / Fold change /veh ECM1 (11717891_a_at) / RFU IL23R (11748794_a_at) / Fold change /veh IL23R (11748794_a_at) / RFU TNFAIP8L3 (11732012_x_at) / Fold change /veh TNFAIP8L3 (11732012_x_at) / RFU MBOAT4 (11741988_at) / Fold change /veh MBOAT4 (11741988_at) / RFU 11764193_at / Fold change /veh 11764193_at / RFU TMEM53 (11763286_at) / Fold change /veh TMEM53 (11763286_at) / RFU MAGEB2 (11727129_at) / Fold change /veh MAGEB2 (11727129_at) / RFU TMEM200A (11744735_a_at) / Fold change /veh TMEM200A (11744735_a_at) / RFU CCDC152 (11751479_a_at) / Fold change /veh CCDC152 (11751479_a_at) / RFU FAM211A (11726209_a_at) / Fold change /veh FAM211A (11726209_a_at) / RFU RGS16 (11746705_a_at) / Fold change /veh RGS16 (11746705_a_at) / RFU VCAN (11755009_s_at) / Fold change /veh VCAN (11755009_s_at) / RFU RHOB (11743442_s_at) / Fold change /veh RHOB (11743442_s_at) / RFU RGS16 (11720943_a_at) / Fold change /veh RGS16 (11720943_a_at) / RFU RGS16 (11720944_at) / Fold change /veh RGS16 (11720944_at) / RFU, VPS4B / Fold change vs veh, VPS4B / RFU, CREB1 / Fold change vs veh, CREB1 / RFU, DNAJC13 / Fold change vs veh, DNAJC13 / RFU, GNAQ / Fold change vs veh, GNAQ / RFU, CDK5R1 / Fold change vs veh, CDK5R1 / RFU, ZRANB3 / Fold change vs veh, ZRANB3 / RFU, CUL4A / Fold change vs veh, CUL4A / RFU, CCNY / Fold change vs veh, CCNY / RFU, UFL1 / Fold change vs veh, UFL1 / RFU, COG3 / Fold change vs veh, COG3 / RFU, DIAPH2 / Fold change vs veh, DIAPH2 / RFU, SKA2 / Fold change vs veh, SKA2 / RFU, AFF3 / Fold change vs veh, AFF3 / RFU, LMF1 / Fold change vs veh, LMF1 / RFU, IPO11 / Fold change vs veh, IPO11 / RFU, DFFB / Fold change vs veh, DFFB / RFU, FOXP1 / Fold change vs veh, FOXP1 / RFU, CARD8 / Fold change vs veh, CARD8 / RFU, STRN3 / Fold change vs veh, STRN3 / RFU, ADK / Fold change vs veh, ADK / RFU, RASSF2 / Fold change vs veh, RASSF2 / RFU, WIPF1 / Fold change vs veh, WIPF1 / RFU, LARP1B / Fold change vs veh, LARP1B / RFU, RASA1 / Fold change vs veh, RASA1 / RFU, RB1 / Fold change vs veh, RB1 / RFU, PPFIA1 / Fold change vs veh, PPFIA1 / RFU, MAT2A / Fold change vs veh, MAT2A / RFU, CCT5 / Fold change vs veh, CCT5 / RFU, WDR92 / Fold change vs veh, WDR92 / RFU, CUX1 / Fold change vs veh, CUX1 / RFU, TTC7A / Fold change vs veh, TTC7A / RFU, TMEM135 / Fold change vs veh, TMEM135 / RFU, DEPTOR / Fold change vs veh, DEPTOR / RFU, CPM / Fold change vs veh, CPM / RFU, DNAJB6 / Fold change vs veh, DNAJB6 / RFU, CACNA2D3 / Fold change vs veh, CACNA2D3 / RFU, DTX4 / Fold change vs veh, DTX4 / RFU, TFCP2 / Fold change vs veh, TFCP2 / RFU, GMCL1 /// GMCL1P1 / Fold change vs veh, GMCL1 /// GMCL1P1 / RFU, AEBP2 / Fold change vs veh, AEBP2 / RFU, SNHG1 /// SNORD22 /// SNORD25 /// SNORD26 /// SNORD27 /// SNORD28 /// SNORD29 /// SNORD31 / Fold change vs veh, SNHG1 /// SNORD22 /// SNORD25 /// SNORD26 /// SNORD27 /// SNORD28 /// SNORD29 /// SNORD31 / Fold change (Aza/veh), C12orf56 (ProbeSet 11735607_a_at) / Fold change (ACY-1035/veh), C12orf56 (ProbeSet 11735607_a_at) / Fold change (Aza/veh), FGFR1OP (ProbeSet 11751329_s_at) / Fold change (ACY-1035/veh), FGFR1OP (ProbeSet 11751329_s_at) / Fold change (Aza/veh), VPS36 (ProbeSet 11739960_a_at) / Fold change (ACY-1035/veh), VPS36 (ProbeSet 11739960_a_at) / RFU SYPL1 (11715823_x_at) / Fold change /veh SYPL1 (11715823_x_at) / RFU IGFBP7 (11715501_s_at) / Fold change /veh IGFBP7 (11715501_s_at) / RFU REEP3 (11722064_at) / Fold change /veh REEP3 (11722064_at) / RFU IGLL1 (11728026_x_at) / Fold change /veh IGLL1 (11728026_x_at): dose or concentration left out as unconfirmed
Details: ProbeSet 11733831_s_at; LIST D

Nc1ccc(-c2cccs2)cc1NC(=O)c1ccc2c(c1)cc(C1CC1)n2CCN1CCOCC1 [ACY-1035]
Fold change vs veh, GMCL1 /// GMCL1P1: 0.86

— article PMC5218480 (PLoS ONE, 2017)
